This is an account of results in patent publication US6630481B2, “Viologen linked acridine based molecule and process for the preparation thereof” (Council of Scientific and Industrial Research of India, priority 2001, dated 2003).

The test system of assay [1] is PM2 DNA. The experiment in a line: DNA relaxation assay: photoactivated cleavage of plasmid DNA with repair endonucleases. It is filed as biochemical. To be noted: 360 nm light; for damage sensitive to FPG protein with increase in the time of irradiation: 0° C., FIG. 5 and FIG. 6; for generation of single strand breaks (SSB) with irradiation time: irradiation for 30 min. The source says:
Cleavage of plasmid DNA was followed by monitoring the conversion of supercoiled (Form I) to open circular relaxed (Form II) and linear (Form III). Plasmid DNA cleavage is a very sensitive technique and when combined with several repair endonucleases, it can serve as a kind of fingerprint of the species directly responsible for the damage. Induction of one single strand break (SSB) by a compound converts Form I to Form II and the quantification of which indicates its efficiency of DNA cleavage. A DNA relaxation assay was used to quantify SSB and endonuclease-sensitive modifications (Epe, B.; Helger, J.; Wild, D. Carcinogenesis 1989, 10, 2019 and Epe, B.; Mftzel, P.; Adam, W. Chem. Biol. Interactions 1988, 67, 149). This assay makes use of the fact that Form I when converted by either a single strand break (SSB) or the incision by a repair endonuclease leads to Form II, which migrates separately in agarose gel electrophoresis.
Phosphate-buffered (pH 7.0), air-saturated solutions of PM2 DNA (10 μg/mL) at 0° C. were irradiated with 360 nm near-UV irradiation in the presence of various concentrations of acridine-viologen bifunctional molecules represented by compound of formula 1a and 1b (wherein Y=—(CH2)n, wherein n=1-11; R=—MV^2+—(CH2)m—CH32X^⊖ or —Pyr^2+—(CH2)m—CH32X^⊖ and wherein Y=—(CH2)n, wherein n=1-11; R=—MV^2+—(CH2)m—Acr2X^⊖ or —Pyr^2+—(CH2)m—Acr2X^⊖ respectively). Subsequently, the DNA was analyzed for the following types of modifications: (i) DNA single and double strand breaks; (ii) sites of base loss (AP sites) recognized by exonuclease III; (iii) base modifications plus AP sites sensitive to the T4 endonuclease V; (iv) base modifications plus AP sites sensitive to the endonuclease III and (v) base modifications plus AP sites sensitive to formamidopyrimidine-DNA glycosylase (FPG protein).

In assay [2] the test system is calf thymus DNA. The experiment in a line: DNA binding affinity (association constants) by absorption and fluorescence. The conditions noted are these: buffer containing 1 mM EDTA. How it is done: DNA binding efficiency. DNA binding affinities of acridine-viologen bifunctional molecules represented by compound of formula 1a and 1d were analyzed using calf thymus DNA, in NaCl buffer at different salt concentrations (2 mM and 100 mM). Test solutions containing different concentrations of calf thymus DNA in NaCl buffer were incubated at room temperature for one hour to complete the complexation and were analyzed using absorption and fluorescence techniques. […] The binding constants of viologen linked acridines with DNA were determined according to the reported procedures. References may be made to Peacocke, A. R.; Skerrett, J. N. H. Trans. Faraday Soc. 1956, 52, 261; McGhee, J. D.; von Hippel, P. H. J. Mol. Biol. 1974, 86, 469; Scatchard, G. Ann. N.Y. Acad. Sci 1949, 51, 660; Adam, W.; Cadet, J.; Dall'Acqua, F.; Epe, B.; Ramaiah, D.; Saha-Moller, C. R. Angew. Chem. Int. Ed. Engl. 1995, 34, 107). […] Further fluorescence lifetimes of these compounds were also examined in presence and absence of DNA.

In the case of `CCCC[n+]1ccc(-c2cc[n+](CCCCCCCCCCCc3c4ccccc4nc4ccccc34)cc2)cc1.[Br-].[Br-]` [1-[11-(acridin-9-yl)undecyl]-1′-butyl-4,4′-bipyridinium dibromide], in assay [1], the “damage sensitive to FPG protein with increase in the time of irradiation” value is on record as “increases” and the “generation of single strand breaks (SSB) with irradiation time” value is “No significant increase”. In addition, the “K (DNA association constant)” value in assay [2] (2 mM NaCl) stood at 5.24e+06 M⁻¹. Moreover, the “K (DNA association constant)” value in assay [2] (100 mM NaCl) stood at 164000 M⁻¹.

As to `CCCC[n+]1ccc(-c2cc[n+](Cc3c4ccccc4nc4ccccc34)cc2)cc1.[Br-].[Br-]` [1-[(acridin-9-yl)methyl]-1′-butyl-4,4′-bipyridinium dibromide], in assay [1], the “damage sensitive to FPG protein with increase in the time of irradiation” value is given as “increases” and the “generation of single strand breaks (SSB) with irradiation time” value is recorded as “No significant increase”. Further, in assay [2] (2 mM NaCl), the “K (DNA association constant)” value was determined as 924000 M⁻¹. Besides, the “K (DNA association constant)” value in assay [2] (100 mM NaCl) was found to be 101000 M⁻¹.

In the case of “bis-1,1′-[(acridin-9-yl)methyl]-4,4′-bipyridinium dibromide”, the “K (DNA association constant)” value in assay [2] (2 mM NaCl) came out at 1.3e+06 M⁻¹; in assay [2] (100 mM NaCl), 390000 M⁻¹.
